Reference: patent US20010012893A1, “Acyclovir diester derivatives” (Drug Innovation & Design, Inc., priority 1997, published 2001)
“Also recorded” adds a separate entry of the source.

Experiments:
HSV-1 = assay: Dermal HSV-1 infection in guinea pigs, topical treatment, compared with placebo/vehicle; assay type: in vivo; conditions: guinea pig; for reduction in lesion area (in words) / reduction in lesion number (in words) / reduction in lesion virus titer / skin viral titres (in words): dermal HSV-1, topical, compared to vehicle or to Prodrug 1
Procedure: The formulation for Prodrug 1 contained 5% EL-620 EMULPHOR (polyoxyethylated castor oil) (Rhone Poluenc), 5% CARBOPOL (Carboxypolymethylene, sodium salt) (B. F. Goodrich), 10% ethanol and 2% by weight Prodrug 1. The balance of the formulation consisted of water.
EL-620 EMULPHOR and water were mixed and ultrasonicated to give a clear emulsion, to which the ethanol was added. The prodrug was then added, and the mixture was ultrasonicated. The sodium carbopol was then added to the emulsion and mixed until to homogeneity.
The placebo was prepared identically to the pharmaceutical compositions except that the prodrugs were omitted.
Female Hartley outbred guinea pigs, 400 to 450 grams, were obtained from Charles River Breeding Labs, Wilmington, Mass. Animals were anesthetized with 25 mg/kg ketamine and 5 mg/kg xylazine SQ. Hair on the dorsum from the shoulders to the rump was removed with electric clippers followed by two 5-10 minute applications of a chemical depilatory. A grid of four areas was demarcated with a pen on both sides of the spine at levels corresponding to mid back and rump.
Undiluted HSV-1 virus stock (0.035 ml) was applied to each different area and introduced through the skin at well-spaced sites at ten activations of a six-pronged spring-loaded vaccination instrument (Sterneedle, Pan Ray Division, Ormont Drug, Englewood, N.J.). The day of inoculation is Day 0. Approximately 250 mg of drug or placebo was applied to the areas according to the dosing regimen on Days 1, 2 and 3. Eight guinea pigs were used during the experiments allowing eight comparisons between each drug and its placebo.
On Day 4 regrown hair on the dorsum of the guinea pigs was removed with one 3-4 minute application of a chemical depilatory. HSV lesions were counted and Polaroid pictures of the animals' backs were taken. The animals were sacrificed using CO2 gas and the full thickness skin of the back was removed by dissection. The square of the skin from each of the four treatment areas was placed into 15 mls of tissue culture medium with 2% FBS in an ice bath. The samples were then homogenized in a stomacher Lab Blender 80 (Tekmar Co.). Debris was pelleted by centrifugation and the supernatants collected and frozen at −70° C. until assay for infectivity by plaque formation in VERO cells.
The mean and standard deviation for number of lesions, total lesion area and lesion virus titer were computed. Paired data (drug/vehicle) were evaluated by the Wilcoxon signed-rank test using percent differences between log10 derivatives of mean lesions severity at drug-treated sites compared to the vehicle-treated sites.
Prodrug 2 was formulated as described in Example 1. One Hartley guinea pig was inoculated with HSV-1 as described in Example 1. The guinea pig was treated with Prodrug 2 according to the protocol used in Example 1 for Prodrug 1.

pig liver esterase = assay: Incubation with pig liver esterase in phosphate buffered D2O, followed by NMR; assay type: in vitro ADME
Excerpt: This assay is described in Glazier, WO 91/19721 entitled “Phosphorus Prodrugs” and can be used to determine suitable hydroxyl or amino protecting groups which can be cleaved in vivo. The entire teachings of […] are incorporated herein by reference. It is to be understood that there are other in vitro assays known to one of ordinary skill in the art employing esterases, amidases or enzymes capable of cleaving carbonate, carbamate, ester and amide groups which can also be used to determine suitable protecting groups.

herpes simplex labialis = conditions: cited from earlier work
[1] = dermal HSV-1, topical 2% formulation, Days 1-3, read Day 4, p<0.01

Row | SMILES | reduction in lesion area compared with placebo (HSV-1; [1]) [%] | reduction in lesion number compared with placebo (HSV-1; [1]) [%] | reduction in skin viral titres compared with placebo (HSV-1; dermal HSV-1, topical 2% formulation, Days 1-3, read Day 4, plaque formation in VERO cells, p<0.01) [%] | reduction in lesion area (in words) (HSV-1) | reduction in lesion number (in words) (HSV-1) | reduction in lesion virus titer / skin viral titres (in words) (HSV-1) | degradation products with esterase (pig liver esterase) | effectiveness of oral administration for cold sores (herpes simplex labialis; oral) | response of cold sores to topical treatment (herpes simplex labialis; topical)
1 | COC(=O)CC(OP(=O)([O-])OCCOCn1cnc2c(=O)[nH]c(N)nc21)c1ccc(OC(=O)C(C)(C)C)cc1.[Na+] (stereo not drawn) [Prodrug 1] | 79 | 72 | 93 | dramatic reduction | dramatic reduction | dramatic reduction | degraded to acyclovir monophosphate and p-hydroxycinnamic |  | 
2 | COC(=O)CC(OP(=O)([O-])OCCOCn1cnc2c(=O)[nH]c(N)nc21)c1ccc(OC(C)=O)cc1.[Na+] (stereo not drawn) [Prodrug 2] |  |  |  | comparable reduction; also recorded: dramatic reduction | comparable reduction; also recorded: dramatic reduction | comparable reduction; also recorded: dramatic reduction |  |  | 
3 | Nc1nc2c(ncn2COCCO)c(=O)[nH]1 [acyclovir] |  |  |  |  |  |  |  | only partially effective | do not respond
